In patent US12078634B2, “Broad spectrum kinase binding agents” (Promega Corporation, priority 2018, dated 2024):

Key:
kinase/Nluc fusions [1] = test system: kinase/Nluc fusions
Method: NanoBRET™ assays were run by competitive displacement of NanoBRET™ tracers in living HEK293 cells.
Values were measured by competitive displacement of NanoBRET™ tracers in living cells.
In wells of 96-well plates, 20,000 HEK293 cells per well were transfected with kinase/Nluc fusions expressed from pFN31K and pFN32K plasmids. Transfections were performed using 3:1 FuGENE HD:plasmid ratios. 24 hours post transfection, cells were treated for 2 hours in the presence of tracer and varying concentration of control inhibitor indicated. After incubation, NanoBRET™-TE substrate/inhibitor solution was added to a final concentration of 1×, and BRET was measured on a Glomax® Discover plate reader.

kinase/Nluc fusions [2] = assay: NanoBRET fractional occupancy by competitive displacement of NanoBRET tracers in living HEK293 cells; format: cell-based; settings: of the 200 kinases evaluated, 300 nM test compound, 2 hours, CC-1861 vs CTx (FIG. 5)
Method: Transfections were performed using 3:1 FuGENE HD:plasmid ratios.

[3] = test system: kinase/NanoLuc® (Nluc) fusion proteins; assay: NanoBRET relative BRET signal of kinase tracers against a panel of kinase/NanoLuc fusions in live cells; format: cell-based; settings: HEK293 cells, 2 hours, 0.5 uM CC-1804, CC-1852, or 1 uM CC-1294; compared to CC-1294
Method: (§1) FIG. 1A-B. Summary of the BRET results generated with kinase tracers against a large panel of kinase/NanoLuc® fusions expressed in live cells. Assay signals were assessed by taking the ratio of BRET in the presence of tracer/no tracer control. Assays are categorized as follows: >3-fold signal (green cells), 2-3 fold signal (yellow cells), and 1.5-2 fold signal (red cells).
as §1, with “1C-F. Individual BRET signals observed between” for “1A-B. Summary of”, “broad-spectrum” for “BRET results generated with”, “and individual” for “against a large panel of”
Experiments were conducted during development of embodiments herein to derive a comprehensive analysis of intracellular kinase target engagement using NanoBRET™ tracers derived from CC-1294 versus NanoBRET™ tracers derived from novel inhibitors. […] NanoBRET was measured on a Glomax® Discover plate reader. To determine relative BRET signals, BRET arising from the tracer was divided by BRET in the absence of tracer.

NC(=O)c1ccccc1Nc1nc(Nc2ccc(N3CCNCC3)cc2)ncc1Cl [CC-1861, 2-((5-chloro-2-((4-(piperazin-1-yl)phenyl)amino)pyrimidin-4-yl)amino)benzamide]
inhibitor potency compared to CTx (kinase/Nluc fusions [1]; HEK293 cells, 2 hours, tracer plus varying concentration of inhibitor (FIG. 7)): increased inhibitor potency | intracellular affinity compared to CTx-0294885 (kinase/Nluc fusions [1]; living HEK293 cells, four targets tested (FIG. 7)): stronger than CTx-0294885 for three of the four targets tested

CNC(=O)c1ccccc1Nc1nc(Nc2ccc(N3CCNCC3)cc2)ncc1Cl [CTx-0294885, 2-((5-chloro-2-((4-(piperazin-1-yl)phenyl)amino)pyrimidin-4-yl)amino)-N-methylbenzamide]
number of kinases that preferred the compound over the other (kinase/Nluc fusions [2]): 4

NC(=O)c1ccccc1Nc1nc(Nc2cccc(N3CCNCC3)c2)ncc1Cl [CC-1852]
target engagement/kinase profiling breadth (relative BRET signal, tracer / no tracer) [3]: unexpectedly broad spectrum target engagement/kinase profiling
